Results taken from ChEMBL document CHEMBL1145726, “Structure-based design of agents targeting the bacterial ribosome” (Bioorg Med Chem Lett, 2003).
Values after ≈ are worked out from the molar mass of the structure shown.

Key:
Format in all cases: functional
[1] = Inhibition of L11BD (L11 binding domain) 58-mer methylation of A1067 at 50 uM
Escherichia coli [2] = test: In vitro antibacterial activity was determined
Escherichia coli [3] = test: In vitro inhibition of protein translation in Escherichia coli
Escherichia coli [4] = test: Inhibitory concentration of compound against Escherichia coli in vitro protein translation
Nucleic Acid = test: % Inhibition of rRNA methylation at 50 uM

Structure (SMILES) | inhibition [1] [%] | MIC95 (Escherichia coli [2]) [µg/mL] | Inhibition (Escherichia coli [3]) [%] | IC50 (Escherichia coli [4]) [µM] | inhibition (Nucleic Acid) [%]
C[C@H](O)[C@H](NC(=O)c1csc(-c2ccccc2)n1)c1nc(C(=O)N2CCN(CCOCCO)CC2)cs1 | 59 | > 200 |  |  | 
C=C(NC(=O)C(=C)NC(=O)c1csc(C2=N[C@@H]3c4csc(n4)[C@H]4NC(=O)c5csc(n5)[C@H]([C@](C)(O)[C@@H](C)O)NC(=O)[C@H]5CSC(=N5)/C(=C/C)NC(=O)[C@H]([C@@H](C)O)NC(=O)c5csc(n5)[C@]3(CC2)NC(=O)[C@H](C)NC(=O)C(=C)NC(=O)[C@H](C)NC(=O)[C@H]([C@@H](C)CC)N[C@@H]2C=Cc3c([C@H](C)O)cc(nc3[C@H]2O)C(=O)O[C@@H]4C)n1)C(N)=O [THIOSTREPTON] |  | 0.015 (≈ 0.00901 µM) | 98 | 0.1 | 
CC(C)[C@@H](NC(=O)[C@@H](NC(=O)c1csc(-c2ccccc2)n1)[C@@H](C)O)c1nc(C(=O)NCc2ccc3c(c2)OCO3)cs1 | 24 | > 200 | 16 |  | 20
C[C@H](O)[C@@H](NC(=O)[C@@H](NC(=O)c1csc(-c2ccccc2)n1)[C@@H](C)O)c1nc(C(=O)O)cs1 | 35 | > 200 |  |  | 27
CC[C@@H](NC(=O)[C@@H](NC(=O)c1csc(-c2ccccc2)n1)[C@@H](C)O)c1nc(C(=O)NCc2ccc3c(c2)OCO3)cs1 | 28 | > 200 | 31 |  | 13
CC(C)[C@@H](NC(=O)[C@@H](NC(=O)c1csc(-c2ccccc2)n1)[C@@H](C)O)c1nc(C(=O)NCCCO)cs1 | 37 | > 200 | 48 |  | 37
